US20170290814A1, “METHODS OF TREATMENT OF CHOLESTASIS AND FIBROSIS” (GENFIT, priority 2016, published 2017)
Entries after “also recorded” stand apart in the source; their conditions may differ.

Experiments:
[1] = tested on: TGFβ1-induced expression of α-SMA protein in human cardiac fibroblasts (NHCF); experiment: α-SMA ELISA in TGFβ1-activated normal human cardiac fibroblasts; type: cell-based; details: TGFβ1 3 ng/ml, 48 h
Protocol: Cpd.5 was added to serum-deprived cardiac fibroblasts (NHCF) 1 hour before the activation with TGFβ1 (3 ng/ml). After 48 hours of incubation, the expression of α-SMA was measured by ELISA. The obtained values were transformed into percentage inhibition over TGFβ1 control. Data are presented as mean (triplicates)±standard deviation (SD). Statistical analyses were performed by one-way ANOVA followed by Bonferroni post-hoc tests, using Sigma Plot 11.0 software. [*: p<0.05; **: p<0.01; ***: p<0.001 (comparison versus TGFβ1 3 ng/mL group)].
The Normal Human Cardiac Fibroblasts (ventricle) (NHCF-V) (Lonza) were isolated from normal, adult heart tissue. Cells were cultured in Fibroblast Basal Medium (FBM) (Lonza cat #CC-3131) that was supplemented with FGM™-3 BulletKit™ kit (Lonza cat #CC-4525). The complete medium contains 10% fetal bovine serum. For the activation experiments with TGFβ1, the NHCF-V were plated at a density of 6×10^3 cells per well in 96-well plates. The next day, cell-culture medium was removed, and cells were washed with PBS (Invitrogen cat #14190). NHCF were deprived for 24 hours in serum-free, insulin-free and rhFGF-B-free medium. […]
The level of α-SMA was measured using a Sandwich ELISA. […]

[2] = tested on: TGFβ1-induced expression of α-SMA protein in human HSC; experiment: α-SMA ELISA in TGFβ1-activated human hepatic stellate cells; type: cell-based; details: TGFβ1 1 ng/ml, 48 h
Protocol: Serum-deprived HSC were preincubated for 1 hour with RM-5061 before the activation with the profibrogenic cytokine TGFβ1 (1 ng/ml). After 48 hours of incubation, the α-SMA content was measured by ELISA. The obtained values were transformed into percentage inhibition over TGFβ1 control. Data are presented as mean (quadruplicates)±standard error of the mean (SEM). Statistical analyses were performed by one-way ANOVA followed by Bonferroni post-hoc tests, using Sigma Plot 11.0 software. [*: p<0.05; **: p<0.01; ***: p<0.001 (comparison versus TGFβ1 1 ng/mL group)]. The curve fitting and the calculation of half maximal inhibitory concentration (IC50) were performed with XLFit software 5.3.1.3.
Serum-deprived HSC were preincubated for 1 hour with Cpd.5 before the activation with the profibrogenic cytokine TGFβ1 (1 ng/ml). After 48 hours of incubation, the expression of α-SMA was measured by ELISA. The obtained values were transformed into percentage inhibition over TGFβ1 control. Data are presented as mean (triplicates)±standard deviation (SD). Statistical analyses were performed by one-way ANOVA followed by Bonferroni post-hoc tests, using Sigma Plot 11.0 software. [*: p<0.05; **: p<0.01; ***: p<0.001 (comparison versus TGFμ1 1 ng/mL group)]. The curve fitting and the calculation of half maximal inhibitory concentration (IC50) were performed with XLFit software 5.3.1.3.
The human primary hepatic stellate cells (hHSC) (Innoprot) were cultured in STeCM medium (ScienCell cat #5301) that was supplemented with 2% fetal bovine serum (FBS, ScienCell cat #0010), 1% penicillin/streptomycin (ScienCell cat #0503) and stellate cell growth supplement (SteCGS; ScienCell cat #5352). Cell culture flasks were coated with Poly-L Lysine (Sigma cat #P4707) for a better adherence.
The human primary hepatic stellate cells (hHSC) (Innoprot) were cultured under standard conditions, as described above. The cells were subsequently plated at a density of 2×10^4cells/well or 6,5×10^3 cells/well into 96-well or 384-well plates respectively. The next day, cell-culture medium was removed, and cells were washed with PBS (Invitrogen cat #14190). Then, hHSC were deprived for 24 hours in serum-free and SteCGS-free medium. For the treatments with compounds of formula (I), the serum-deprived hHSC were preincubated for 1 hour with the compounds followed by addition of the profibrogenic stimuli TGFβ1 (PeproTech cat #100-21, 1 ng/mL) in serum-free and SteCGS-free medium for an additional 48 hour period. At the end of treatment, the cell culture supernatants of treated-HSC were transferred into a new plate before storage at −20° C.The cells were washed with PBS (Invitrogen, cat #14190) before the addition of lysis buffer (CelLytic™ MT reagent; Sigma #C3228). Plates were then incubated for 30 min on ice using a plate shaker, before storage at −20° C.
The level of α-SMA was measured using a Sandwich ELISA. Briefly, the wells of an ELISA plate were first coated with the capture antibody (mouse monoclonal anti-ACTA2, Abnova) at 4° C. overnight. After 3 washes in PBS +0.2% Tween 20, a blocking solution consisting of PBS +0.2% BSA was added for one hour followed by another washing cycle. The cell lysates were transferred into the wells for binding to the capture antibody for a period of 2 h at room temperature. After the washing procedure, the detection antibody (biotinylated mouse monoclonal anti-ACTA2, Abnova) was added for 2 hours at room temperature followed by 3 washes. For the detection, an HRP-conjugated Streptavidin (R&D Systems cat #DY998) was first applied for 30 min at room temperature. After washing, the HRP substrate TMB (;BD, #555214) was added and incubated for 7 min at room temperature in the dark. Upon oxidation, TMB forms a water-soluble blue reaction product that becomes yellow with addition of sulfuric acid (solution stop), enabling accurate measurement of the intensity at 450 nm using a spectrophotometer. […]

Row | Structure (SMILES) | effect on TGFβ1-induced α-SMA in human cardiac fibroblasts [1] | effect on TGFβ1-induced α-SMA level in human HSC [2] | Max % I Over TGFβ, αSMA [2] [%]
1 | [2H]C([2H])([2H])C(=O)Oc1ccccc1C(=O)Nc1ncc([N+](=O)[O-])s1 [Cpd.5, 2-[(5-nitro-1,3-thiazol-2-yl)carbamoyl]phenyl (d3)ethanoate] | inhibits | inhibits | 
2 | CC(C)(C)[C@H](N)C(=O)Oc1ccccc1C(=O)Nc1ncc([N+](=O)[O-])s1 [RM-5061, (S)-2-(5-nitrothiazol-2-ylcarbamoyl)phenyl 2-amino-3,3-dimethylbutanoate] |  | dose-dependently reduced; also recorded: inhibits | 40
